In patent publication US20240398899A1 (priority 2021, published 2024):

Experiments:
SH-SY5Y neuronal cells [1] = assay: Cytoprotective effect against MPP+ iodide induced damage, MTT assay; settings: MPP+ iodide 1 mM
Protocol: The Human Neuronal SH-SY5Y Cells were counted using hemocytometer and plated in 96 well plate at a density of 25,000 cells/well and incubated at 37° C. for 24 h. After incubation, cells were treated with recombinant lectin protein having the sequence of SEQ ID NO: 1 at concentrations ranging from 0.001 μg/ml 50 μg/ml for 24 h. After 24 h of treatment, cells were exposed to neurotoxin (MPP+ iodide, 1 mM) for 24 h. Cells treated with MPP+ iodide alone were included as negative control. Untreated cells were included as control. […] After treatment, the cytoprotective effect of SEQ ID NO: 1 on cell viability was assessed by 3-(4,5-dimethythiazol-2-yl)-2,5-diphenyl tetrazolium bromide (MTT) assay: The plate was taken out and 20 μl of 5 mg/ml of MTT 3-(4,5-dimethythiazol-2-yl)-2,5-diphenyl tetrazolium bromide solution was added to all the wells. The SH-SY5Y cells were incubated for 3 h at 37° C. The supernatant was aspirated and 150 μl of DMSO was added to each well to dissolve formazan crystals. The absorbance of each well was read at 540 nm using Synergy HT micro plate reader. The protective effect of the SEQ ID NO: 1 on survival of SH-SY5Y cells against MPP+ iodide induced damage was determined as: The viability of cells was determined as:
Where, the percentage cytotoxicity corresponding to each treatment was calculated as follows:
[formula] • X=Absorbance of cells treated with MPP+ iodide/recombinant lectin having SEQ ID NO: 1+MPP+Iodide • R=Absorbance of Control cells (Untreated) • Percentage protection was calculated as:
[(Absorbance of SEQ ID NO:1+MPP+Iodide)−(Absorbance of MPP+Iodide)/(Absorbance of Untreated)−(Absorbance of MPP+Iodide alone)]*100

SH-SY5Y neuronal cells [2] = assay: Sub (G0/G1) cell population by PI cell cycle assay against MPP+ iodide damage; type: cell-based, human; settings: MPP + Iodide (2 mM); for % Decrease in Apoptotic cells (wrt MPP + iodide): SubG0/G1
Protocol: After incubation as in Example 2a and 2b, cells were harvested by trypsinization and processed for Cell cycle assay as follows: Cell cycle reagent contains PI stain, which stains DNA of cells in different phases of cell cycle; Sub (G0/G1), G1, S, G2 and M. Cells in Sub (G0/G1) phase correspond to apoptotic cells.
Cells were gently harvested into pre-labelled centrifuge tubes and centrifuged at 450 g for 5 min, RT (low brake). The supernatants were removed carefully and discarded. 1 ml of 1×PBS was added to the pellet and resuspended gently to make homogenous suspension. Cells were centrifuged at 450 g for 5 min, RT (low brake). The supernatant was carefully removed leaving behind approximately 100 μl of PBS. Cells were resuspended gently yet thoroughly in residual PBS. The cells were fixed by adding Ice-cold 70% ethanol (100 μl) added dropwise into cells in each tube while vortexing at low speed Cells were stored at 4° C. for 24 h prior to staining.
Ethanol fixed cells were centrifuged at 450 g for 5 min, RT (low brake) the supernatant was carefully removed (not to touch the pellet) and discarded. 1 ml of 1×PBS was added into pellet and resuspended gently. Cells were incubated for 1 minute at RT. Cells were centrifuged at 450 g for 5 min, RT (low brake). (washing step) The supernatant was removed carefully leaving behind approx. 20 μl-50 μl of PBS. 200 μl of Cell Cycle reagent was added into each tube. Cells were resuspended gently and mixed. Cells were incubated for 30 min, RT, Dark. The stained samples were transferred into 96-well plates and acquired on flow cytometer (Guava technologies). Percentage of cells in Sub (G0/G1) phase were determined.
Percent inhibition in apoptotic cells=[(% Sub(G0/G1)cells in MPP+iodide alone) −(% Sub(G0/G1)cells in SEQ ID NO:1+MPP+iodide)/% Sub(G0/G1)cells in MPP+iodide alone]*100

SH-SY5Y neuronal cells [3] = assay: Annexin-V staining of apoptotic cells against MPP+ iodide damage; type: cell-based, human; settings: MPP+ iodide 1 mM; for % Decrease in Apoptotic cells (wrt MPP + iodide): Annexin
Protocol: After 24 h of treatment, cells were exposed to damage (MPP+ iodide 1 mM) for 24 h. […] Untreated cells were included as control. Cells treated with Deprenyl served as positive control. After treatment, cells were harvested by trypsinization and processed for Annexin V assay as follows: Cell were gently harvested into pre-labeled sterile centrifuge tubes and centrifuged at 300×g for 5-7 min. After 24 h of treatment, cells were exposed to damage (MPP+ iodide 1 mM) for 24 h. Cells treated with MPP+ iodide alone were included as Control. Untreated cells were included as negative control. Cells treated with Deprenyl served as positive control. After treatment, cells were harvested by trypsinization and processed for Annexin V assay as follows: Cell were gently harvested into pre-labelled sterile centrifuge tubes and centrifuged at 300×g for 5-7 min. Supernatant were discarded and the pellet was resuspended in 200 μl of fresh culture medium. 100 μl of cell suspension was transferred into pre-labeled sterile centrifuge tubes. 100 μl of Annexin-V reagent was added to each tube and incubated for 30 min at RT in dark. Cells stained for Annexin-V were then transferred into 96-well plates and acquired on flow cytometer (Guava technologies). Percentage of Annexin-V positive cells was determined.
Percent inhibition in apoptotic cells=[(% Annexin positive cells in MPP+iodide alone)−(% Annexin positive cells in Recombinant Lectin having SEQ ID NO:1+MPP+iodide)/% Annexin positive cells in MPP+iodide alone]*100

Q: Which “Percentage Protection” value (SH-SY5Y neuronal cells [1]; 1 μM) does the source give for `C#CCN(C)[C@H](C)Cc1ccccc1` [Deprenyl, reference compound] here?
A: 41.5%

Q: And the “Percentage Protection” value (SH-SY5Y neuronal cells [1]; 10 μM)?
A: 49%

Q: What about the “Percentage Protection” value (SH-SY5Y neuronal cells [1]; 25 μM) of the same molecule?
A: 75.6%

Q: What about the “Percentage Protection” value (SH-SY5Y neuronal cells [1]; 50 μM) of the same molecule?
A: 74.7%

Q: What about the “Percentage Protection” value (SH-SY5Y neuronal cells [1]; 100 μM) of the same molecule?
A: 67.5%

Q: What about the “% Apoptotic cells (SubG0/G1)” value (SH-SY5Y neuronal cells [2]; 10 μM) of the same molecule?
A: 2.9%

Q: What about the “% Decrease in Apoptotic cells (wrt MPP + iodide)” value (shortened to “% Decrease in Apoptotic cells”) (SH-SY5Y neuronal cells [2]; 10 μM) of the same molecule?
A: 12.8%

Q: And the “% Apoptotic cells (SubG0/G1)” value (SH-SY5Y neuronal cells [2]; 25 μM)?
A: 2.4%

Q: And the “% Decrease in Apoptotic cells” value (SH-SY5Y neuronal cells [2]; 25 μM)?
A: 28.3%

Q: And the “% Apoptotic cells (SubG0/G1)” value (SH-SY5Y neuronal cells [2]; 100 μM)?
A: 2%

Q: And the “% Decrease in Apoptotic cells” value (SH-SY5Y neuronal cells [2]; 100 μM)?
A: 42%

Q: What about the “% Apoptotic cells (Anenxin + ve)” value (SH-SY5Y neuronal cells [3]; 10 μM) of the same molecule?
A: 3%

Q: What about the “% Decrease in Apoptotic cells” value (SH-SY5Y neuronal cells [3]; 10 μM) of the same molecule?
A: 27.2%

Q: And the “% Apoptotic cells (Anenxin + ve)” value (SH-SY5Y neuronal cells [3]; 25 μM)?
A: 2.5%

Q: What about the “% Decrease in Apoptotic cells” value (SH-SY5Y neuronal cells [3]; 25 μM) of the same molecule?
A: 38.3%

Q: And the “% Apoptotic cells (Anenxin + ve)” value (SH-SY5Y neuronal cells [3]; 100 μM)?
A: 2.9%

Q: What about the “% Decrease in Apoptotic cells” value (SH-SY5Y neuronal cells [3]; 100 μM) of the same molecule?
A: 28.4%
